Assay results reported in patent publication US20100267561A1, “HERBICIDAL PYRIDAZINONE DERIVATIVES” (priority 2007, published 2010).
Like-named read-outs stand apart in the source and are kept apart here.

Legend:
Assay type in all cases: in vivo
[1] = test system: velvetleaf (Abutilon theophrasti); test: Test B pre-/postemergence plant response; details: for pest or weed control at 31 g/ha / pest or weed control at 62 g/ha: Abutilon theophrasti, read-out: Plant response rating, Velvetleaf; for pest or weed control at 31 g/ha: 31 g ai/ha; for pest or weed control at 62 g/ha: 62 g ai/ha, 100 complete control
Summary of the method: (§1)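 Visual scoring from 0 (no effect) to 100 (complete control) against untreated controls was done 13 to 15 days after greenhouse treatment. Chemicals were formulated in a surfactant-containing non-phytotoxic solvent and applied to soil preemergence or to 1- to 4-leaf (2-18 cm) plants postemergence.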

[2] = test system: downy bromegrass (Bromus tectorum); test: Test B pre-/postemergence plant response; details: for pest or weed control at 31 g/ha: 31 g ai/ha
Summary of the method: as §1

[3] = test system: pigweed (Amaranthus retroflexus); test: Test B pre-/postemergence plant response; details: for pest or weed control at 31 g/ha / pest or weed control at 62 g/ha: Amaranthus retroflexus, read-out: Plant response rating, Pigweed; for pest or weed control at 31 g/ha: 31 g ai/ha; for pest or weed control at 62 g/ha: 62 g ai/ha, 100 complete control
Summary of the method: as §1

[4] = test system: wheat (Triticum aestivum); test: Test B pre-/postemergence plant response; details: for plant injury at 31 g/ha / plant injury at 62 g/ha: Triticum aestivum, read-out: Plant response rating, Wheat; for plant injury at 31 g/ha: 31 g ai/ha; for plant injury at 62 g/ha: 62 g ai/ha, 100 complete control
Summary of the method: as §1

[5] = test system: goosegrass (Eleusine indica); test: Test B pre-/postemergence plant response; details: for pest or weed control at 31 g/ha / pest or weed control at 62 g/ha: Eleusine indica, read-out: Plant response rating, Goosegrass; for pest or weed control at 31 g/ha: 31 g ai/ha; for pest or weed control at 62 g/ha: 62 g ai/ha, 100 complete control
Summary of the method: as §1

[6] = test system: blackgrass (Alopecurus myosuroides); test: Test B pre-/postemergence plant response; details: for pest or weed control at 31 g/ha: 31 g ai/ha; for pest or weed control at 62 g/ha: 62 g ai/ha, 100 complete control
Summary of the method: as §1

[7] = test system: soybean (Glycine max); test: Test B pre-/postemergence plant response; details: for plant injury at 31 g/ha / plant injury at 62 g/ha: Glycine max, read-out: Plant response rating, Soybean; for plant injury at 31 g/ha: 31 g ai/ha; for plant injury at 62 g/ha: 62 g ai/ha, 100 complete control
Summary of the method: as §1

[8] = test system: johnsongrass (Sorghum halepense); test: Test B pre-/postemergence plant response; details: for pest or weed control at 31 g/ha / pest or weed control at 62 g/ha: Sorghum halepense, read-out: Plant response rating, Johnsongrass; for pest or weed control at 31 g/ha: 31 g ai/ha; for pest or weed control at 62 g/ha: 62 g ai/ha, 100 complete control
Summary of the method: as §1

[9] = test system: bermudagrass (Cynodon dactylon); test: Test B pre-/postemergence plant response; details: for pest or weed control at 31 g/ha: 31 g ai/ha; for pest or weed control at 62 g/ha: 62 g ai/ha, 100 complete control
Summary of the method: as §1

[10] = test system: giant foxtail (Setaria faberii); test: Test B pre-/postemergence plant response; details: for pest or weed control at 31 g/ha: 31 g ai/ha; for pest or weed control at 62 g/ha: 62 g ai/ha, 100 complete control
Summary of the method: as §1

[11] = test system: common (oilseed) sunflower (Helianthus annuus); test: Test B pre-/postemergence plant response; details: Preemergence
Summary of the method: as §1

[12] = test system: giant foxtail (Setaria faberi); test: Test A pre-/postemergence plant response; details: Setaria faberi, 240 h, read-out: Plant response rating, Foxtail, Giant; for pest or weed control at 31 g/ha: 31 g ai/ha; for pest or weed control at 125 g/ha: 125 g ai/ha
Summary of the method: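 Soil: loam blended with sand. Formulation: non-phytotoxic solvent mixture plus surfactant, applied as preemergence directed soil spray and as postemergence spray. Scoring: visual, 0 no effect to 100 complete control, roughly 10 days post-treatment in greenhouse.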

[13] = 8 g ai/ha, postemergence, 0-100 scale
[14] = 16 g ai/ha, postemergence, 0-100 scale
[15] = post-emergence, Postemergence, scale 0 to 100
[16] = post-emergence, Postemergence, scale 0 to 100, 0 no effect
[17] = pre-emergence, Preemergence, scale 0 to 100 (0 no effect, 100 complete control)
[18] = pre-emergence, Preemergence, 0 to 100 scale, 0 no effect
[19] = Preemergence, 8 g ai/ha, scale 0 to 100 (0 no effect, 100 complete control)
[20] = Preemergence, 16 g ai/ha, scale 0 to 100

With `Cc1cc(-c2ccc(Br)cc2)nn1-c1c(OC(=O)C2CC2)cnn(C(=O)C2CC2)c1=O` [Compound 80, 5-[3-(4-bromophenyl)-5-methyl-1H-pyrazol-1-yl]-1-(cyclopropylcarbonyl)-1,6-dihydro-6-oxo-4-pyridazinyl cyclopropanecarboxylate] the “Velvetleaf plant response rating” value [1, 13] was 0, the “Velvetleaf plant response rating” value [1, 14] was 0 and the pest or weed control at 31 g/ha [1, 15] was 0%. The pest or weed control at 62 g/ha [1, 16] was 0%, the pest or weed control at 31 g/ha [1, 17] was 0% and the pest or weed control at 62 g/ha [1, 18] was 0%. For the same compound, the “Velvetleaf plant response rating” value [1, 19] was 0, the “Velvetleaf plant response rating” value [1, 20] was 0 and the “Bromegrass, Downy plant response rating” value [2, 13] was 40. For the same compound, the pest or weed control at 16 g/ha ([2]; Bromus tectorum, post-emergence, Postemergence, 16 g ai/ha, scale 0 to 100, read-out: Plant response rating, Bromegrass, Downy) was 45%, the pest or weed control at 31 g/ha ([2]; Bromus tectorum, post-emergence, Postemergence, scale 0 to 100, read-out: Plant response rating, Bromegrass, Downy) was 90% and the pest or weed control at 31 g/ha ([2]; Bromus tectorum, pre-emergence, Preemergence, scale 0 to 100 (0 no effect, 100 complete control), read-out: Plant response rating, Bromegrass, Downy) was 85%. For the same compound, the pest or weed control at 62 g/ha ([2]; Bromus tectorum, pre-emergence, Preemergence, 62 g ai/ha, 0 to 100 scale, 0 no effect, 100 complete control, read-out: Plant response rating, Bromegrass, Downy) was 85%, the “Bromegrass, Downy plant response rating” value [2, 19] was 0 and the “Bromegrass, Downy plant response rating” value [2, 20] was 30. For the same compound, the “Pigweed plant response rating” value [3, 13] was 0, the “Pigweed plant response rating” value [3, 14] was 0 and the pest or weed control at 31 g/ha [3, 15] was 0%. For the same compound, the pest or weed control at 62 g/ha [3, 16] was 0%, the pest or weed control at 31 g/ha [3, 17] was 0% and the pest or weed control at 62 g/ha [3, 18] was 55%. The “Pigweed plant response rating” value [3, 19] was 0, the “Pigweed plant response rating” value [3, 20] was 0 and the “Wheat plant response rating” value [4, 13] was 35. For the same compound, the “Wheat plant response rating” value [4, 14] was 85, the “Wheat plant response rating” value [4, 19] was 0 and the “Wheat plant response rating” value [4, 20] was 20. It also gave a plant injury at 31 g/ha [4, 15] of 95%, a plant injury at 62 g/ha [4, 16] of 98% and a plant injury at 31 g/ha [4, 17] of 60%. For the same compound, the plant injury at 62 g/ha [4, 18] was 95%, the “Goosegrass plant response rating” value [5, 13] was 20 and the “Goosegrass plant response rating” value [5, 14] was 75. The pest or weed control at 31 g/ha [5, 15] was 85%, the pest or weed control at 62 g/ha [5, 16] was 98% and the pest or weed control at 31 g/ha [5, 17] was 100%. For the same compound, the pest or weed control at 62 g/ha [5, 18] was 100%, the “Goosegrass plant response rating” value [5, 19] was 0 and the “Goosegrass plant response rating” value [5, 20] was 20. The “Blackgrass plant response rating” value [6, 13] was 80, the pest or weed control at 16 g/ha ([6]; Alopecurus myosuroides, post-emergence, Postemergence, 16 g ai/ha, scale 0 to 100, read-out: Plant response rating, Blackgrass) was 85% and the pest or weed control at 31 g/ha ([6]; Alopecurus myosuroides, post-emergence, Postemergence, scale 0 to 100, read-out: Plant response rating, Blackgrass) was 95%. It also gave a pest or weed control at 62 g/ha ([6]; Alopecurus myosuroides, post-emergence, Postemergence, scale 0 to 100, 0 no effect, read-out: Plant response rating, Blackgrass) of 100%, a pest or weed control at 31 g/ha ([6]; Alopecurus myosuroides, pre-emergence, Preemergence, scale 0 to 100 (0 no effect, 100 complete control), read-out: Plant response rating, Blackgrass) of 100% and a pest or weed control at 62 g/ha ([6]; Alopecurus myosuroides, pre-emergence, Preemergence, 0 to 100 scale, 0 no effect, read-out: Plant response rating, Blackgrass) of 100%. The “Blackgrass plant response rating” value [6, 19] was 70, the “Blackgrass plant response rating” value [6, 20] was 70 and the “Soybean plant response rating” value [7, 13] was 0. For the same compound, the “Soybean plant response rating” value [7, 14] was 0, the plant injury at 31 g/ha [7, 15] was 15% and the plant injury at 62 g/ha [7, 16] was 20%. The plant injury at 31 g/ha [7, 17] was 0%, the plant injury at 62 g/ha [7, 18] was 0% and the “Soybean plant response rating” value [7, 19] was 0. The “Soybean plant response rating” value [7, 20] was 0, the “Johnsongrass plant response rating” value [8, 13] was 75 and the “Johnsongrass plant response rating” value [8, 14] was 90. For the same compound, the “Johnsongrass plant response rating” value [8, 19] was 60, the “Johnsongrass plant response rating” value [8, 20] was 65 and the pest or weed control at 31 g/ha [8, 15] was 95%. It also gave a pest or weed control at 62 g/ha [8, 16] of 100%, a pest or weed control at 31 g/ha [8, 17] of 80% and a pest or weed control at 62 g/ha [8, 18] of 100%. For the same compound, the “Bermudagrass plant response rating” value [9, 13] was 85, the pest or weed control at 16 g/ha ([9]; Cynodon dactylon, post-emergence, Postemergence, 16 g ai/ha, scale 0 to 100, read-out: Plant response rating, Bermudagrass) was 95% and the pest or weed control at 31 g/ha ([9]; Cynodon dactylon, post-emergence, Postemergence, scale 0 to 100, read-out: Plant response rating, Bermudagrass) was 100%. For the same compound, the pest or weed control at 62 g/ha ([9]; Cynodon dactylon, post-emergence, Postemergence, scale 0 to 100, 0 no effect, read-out: Plant response rating, Bermudagrass) was 100%, the pest or weed control at 31 g/ha ([9]; Cynodon dactylon, pre-emergence, Preemergence, scale 0 to 100 (0 no effect, 100 complete control), read-out: Plant response rating, Bermudagrass) was 100% and the pest or weed control at 62 g/ha ([9]; Cynodon dactylon, pre-emergence, Preemergence, 0 to 100 scale, 0 no effect, read-out: Plant response rating, Bermudagrass) was 100%. For the same compound, the “Bermudagrass plant response rating” value [9, 19] was 50, the “Bermudagrass plant response rating” value ([9]; Preemergence, 16 g ai/ha, scale 0 to 100 (0 no effect, 100 complete control)) was 100 and the “Foxtail, Giant plant response rating” value [10, 13] was 95. The “Foxtail, Giant plant response rating” value [10, 19] was 0, the “Foxtail, Giant plant response rating” value [10, 20] was 100 and the pest or weed control at 16 g/ha ([10]; Setaria faberi, post-emergence, Postemergence, 16 g ai/ha, scale 0 to 100, read-out: Plant response rating, Foxtail, Giant) was 100%. The pest or weed control at 31 g/ha ([10]; Setaria faberi, post-emergence, Postemergence, scale 0 to 100, read-out: Plant response rating, Foxtail, Giant) was 100%, the pest or weed control at 62 g/ha ([10]; Setaria faberi, post-emergence, Postemergence, scale 0 to 100, 0 no effect, read-out: Plant response rating, Foxtail, Giant) was 100% and the pest or weed control at 31 g/ha ([10]; Setaria faberi, pre-emergence, Preemergence, scale 0 to 100 (0 no effect, 100 complete control), read-out: Plant response rating, Foxtail, Giant) was 100%. It also gave a pest or weed control at 62 g/ha ([10]; Setaria faberi, pre-emergence, Preemergence, 0 to 100 scale, 0 no effect, read-out: Plant response rating, Foxtail, Giant) of 100%, a pest or weed control at 31 g/ha ([11]; Helianthus annuus, pre-emergence, 31 g ai/ha, scale 0 to 100 (0 no effect, 100 complete control), read-out: Plant response rating, Sunflower) of 0% and a pest or weed control at 62 g/ha ([11]; Helianthus annuus, pre-emergence, 62 g ai/ha, 0 to 100 scale, 0 no effect, 100 complete control, read-out: Plant response rating, Sunflower) of 0%. The “Sunflower plant response rating” value ([11]; 8 g ai/ha, scale 0 to 100 (0 no effect, 100 complete control)) was 0, the “Sunflower plant response rating” value ([11]; 16 g ai/ha, scale 0 to 100) was 0 and the pest or weed control at 31 g/ha ([12]; post-emergence, Postemergence, 0 to 100 scale (0 no effect, 100 complete control)) was 90%. It also gave a pest or weed control at 125 g/ha ([12]; post-emergence, Postemergence, 0 to 100 scale, 0 no effect, 100 complete control) of 100%, a pest or weed control at 31 g/ha ([12]; pre-emergence, Preemergence, 0 to 100 scale, 0 is no effect, 100 is complete control) of 80% and a pest or weed control at 125 g/ha ([12]; pre-emergence, Preemergence, 0 to 100 scale (0 no effect, 100 complete control)) of 100%.
